The values that follow come from ChEMBL document CHEMBL5625251, “Anti-influenza virus activities and mechanism of antrafenine analogs” (Eur J Med Chem, 2023).

One may read the CC50 as the concentration at which the toxic effect on the cells reaches its halfway point. The inhibition is the change of the read-out against control, counted positive when it falls.

The structures appear in SMILES notation. Active and inactive are the calls of the source. The rule behind the calls is not given here.

For one series, the system named is MDCK. The series can be described thus: Cytotoxicity against MDCK cells assessed as reduction in cell viability at 12.5 uM incubated for 48 hrs by MTT assay. It is filed as toxicity, cell-based, Canis lupus familiaris. Conditions: dog.
A short description of series [1]: Cytotoxicity against MDCK cells assessed as reduction in cell viability incubated for 48 hrs by MTT assay. The series is classed as toxicity, cell-based, Canis lupus familiaris. As to conditions: dog. Background: Tetrazolium dyes change colour on reduction, which living cells bring about.
The subject of series [2] is Influenza A virus. The series can be described thus: Antiviral activity against Influenza A virus A/WSN/33(H1N1) infected in MDCK cells assessed as inhibition of viral growth at 100 uM pre-infected for 1 hr followed by compound addition and measured 24 hrs post infection by plaque assay relative to control. It is filed as functional. As to conditions: time 23 hrs.
Series [3] concerns Influenza A virus. The experiment in a line: Antiviral activity against Influenza A virus A/WSN/33(H1N1) infected in MDCK cells assessed as inhibition of viral growth 12.5 uM pre-infected for 1 hr followed by compound addition and measured 24 hrs post infection by plaque assay relative to control. It is filed as functional. Conditions: for inhibition at 12.5 µM: time 23 hrs.

On to `O=C(NC12CC3CC(CC(C3)C1)C2)c1ccccc1Nc1ccnc2cc(C(F)(F)F)ccc12`, for which, in the series with MDCK, the Activity entry is given as “Toxic”.

Regarding `O=C(NCCCN1CCOCC1)c1ccccc1Nc1ccnc2cc(C(F)(F)F)ccc12`, the CC50 at 48 h in series [1] was over 100 µM. For the same compound, in the series with Influenza A virus [2], the inhibition at 100 µM was found to be 99.9%. With `CCOC(=O)c1ccccc1Nc1ccnc2cc(C(F)(F)F)ccc12`, in series [1], the 50% cytotoxic concentration (CC50) at 48 h is over 100 µM. For the same compound, the inhibition at 100 µM with Influenza A virus [2] amounted to 9.09%.

With `Cc1ccc(N2CCN(CCNC(=O)c3ccccc3Nc3ccnc4ccc(Cl)cc34)CC2)c(C)c1`, the CC50 at 48 h in series [1] worked out at 22.9 µM. Regarding `O=C(NCC(=O)N1CCOCC1)c1ccccc1Nc1ccnc2ccc(Cl)cc12`, the CC50 at 48 h in series [1] was over 100 µM. Further, the inhibition at 100 µM with Influenza A virus [2] worked out at 65.4%. `O=C(CNC(=O)c1ccccc1Nc1ccnc2cc(C(F)(F)F)ccc12)NCc1ccccc1`: in series [1], the CC50 at 48 h was over 100 µM. With `O=C(NCCN1CCN(c2ccccc2Cl)CC1)c1ccccc1Nc1ccnc2ccc(Cl)cc12`, in the series with MDCK, the Activity result was “Toxic”. Take `O=C(c1ccccc1Nc1ccnc2cc(C(F)(F)F)ccc12)N1CCOCC1`: the CC50 at 48 h in series [1] was over 100 µM. Same read-out and setting: to `O=C(Nc1ccccc1)c1ccccc1Nc1ccnc2cc(C(F)(F)F)ccc12` belongs over 100 µM.

For the compound `O=C(NCCCO)c1ccccc1Nc1ccnc2cc(C(F)(F)F)ccc12`, in series [1], the cytotoxic concentration (CC50) at 48 h was over 100 µM. In addition, the inhibition at 100 µM with Influenza A virus [2] was determined as 62.6%.

On to `O=C(OCCN1CCN(c2cccc(C(F)(F)F)c2)CC1)c1ccccc1Nc1ccnc2cc(C(F)(F)F)ccc12` [ANTRAFENINE], for which the CC50 at 48 h in series [1] was over 100 µM.

For the compound `COC(=O)c1ccccc1Nc1ccnc2cc(C(F)(F)F)ccc12`, the 50% cytotoxic concentration (CC50) at 48 h in series [1] is over 100 µM. The inhibition at 100 µM with Influenza A virus [2] turned out to be 17.9%.

With `O=C(NCC(=O)N1CCOCC1)c1ccccc1Nc1ccnc2cc(C(F)(F)F)ccc12`, in series [1], the CC50 at 48 h was over 100 µM. For the same compound, the inhibition at 100 µM in the series on Influenza A virus [2] amounted to 60.6%.

As to `NC(=O)c1ccccc1Nc1ccnc2ccc(Cl)cc12`, the CC50 at 48 h in series [1] was over 100 µM. Moreover, in the series with Influenza A virus [2], the inhibition at 100 µM came to 22.5%. In the case of `O=C(NC1CCCCC1)c1ccccc1Nc1ccnc2cc(C(F)(F)F)ccc12`, the inhibition at 12.5 µM in the series on Influenza A virus [3] turned out to be 41.3%. The CC50 at 48 h in series [1] was over 50 µM. As to `Cc1ccccc1N1CCN(C(=O)CNC(=O)c2ccccc2Nc2ccnc3ccc(Cl)cc23)CC1`, the inhibition at 12.5 µM with Influenza A virus [3] was 55.8%. Besides, the CC50 at 48 h in series [1] was over 100 µM. The matching figures for `O=C(NCC(=O)N1CCN(c2cccc(Cl)c2Cl)CC1)c1ccccc1Nc1ccnc2ccc(Cl)cc12`: 24% and over 50 µM. As for `O=C(CNC(=O)c1ccccc1Nc1ccnc2ccc(Cl)cc12)NC1CCCCC1`, the inhibition at 12.5 µM in the series on Influenza A virus [3] turned out to be 44.4%. Further, the CC50 at 48 h in series [1] was found to be 21.6 µM. Regarding `CN(C)CCNC(=O)c1ccccc1Nc1ccnc2ccc(Cl)cc12`, the CC50 at 48 h in series [1] amounted to 19.9 µM. `CC(C)NC(=O)c1ccccc1Nc1ccnc2cc(C(F)(F)F)ccc12`: the CC50 at 48 h in series [1] is over 100 µM.

`O=C(NC12CC3CC(CC(C3)C1)C2)c1ccccc1Nc1ccnc2ccc(Cl)cc12`: the Activity entry in the series with MDCK is given as “Toxic”. For the compound `O=C(NCCN1CCN(c2ccccc2OC(F)(F)F)CC1)c1ccccc1Nc1ccnc2cc(C(F)(F)F)ccc12`, in series [1], the CC50 at 48 h was over 100 µM. Still for that read-out and setting: as for `Cc1ccc(N2CCN(CCNC(=O)c3ccccc3Nc3ccnc4cc(C(F)(F)F)ccc34)CC2)c(C)c1`, the figure is over 100 µM; as for `O=C(NCc1ccccc1)c1ccccc1Nc1ccnc2ccc(Cl)cc12`, 45.3 µM. With `NC(=O)c1ccccc1Nc1ccnc2cc(C(F)(F)F)ccc12`, the 50% cytotoxic concentration (CC50) at 48 h in series [1] was over 100 µM. With `CNC(=O)c1ccccc1Nc1ccnc2cc(C(F)(F)F)ccc12`, the half-maximal cytotoxic concentration (CC50) at 48 h in series [1] was over 100 µM. Moreover, in the series on Influenza A virus [2], the inhibition at 100 µM is 20%.

On to `O=C(NCCN1CCN(c2cccc(Cl)c2Cl)CC1)c1ccccc1Nc1ccnc2ccc(Cl)cc12`, for which the CC50 at 48 h in series [1] is over 50 µM. For `O=C(NCCCO)c1ccccc1Nc1ccnc2ccc(Cl)cc12`, the CC50 at 48 h in series [1] was over 100 µM. Also, the inhibition at 100 µM in the series with Influenza A virus [2] stood at 69.5%.

As to `CN(C)CCNC(=O)c1ccccc1Nc1ccnc2cc(C(F)(F)F)ccc12`, the inhibition result in the series with Influenza A virus [3] (time 23.0 hrs) was “inactive”. Further, in series [1], the CC50 at 48 h is 17.4 µM.
